Measured values from US20050054696A1, “Indole compounds and medicinal use thereof” (priority 2001, published 2005).

Tests used:
[1] = target: T1, recombinant human liver glycogen phosphorylase (HLGPa) (Homo sapiens, UniProt P06737); assay: Measurement of liver glycogen phosphorylase activity (enzyme inhibitory activity against HLGPa); assay type: biochemical; conditions: Sf9 cell lysate expressing recombinant enzyme; reverse reaction (glycogen synthesis from G1-P), phosphate by malachite green, 60 min room temperature
T1 construct: made in house; host or cells: Sf9 insect cells (unpurified cell lysate used as enzyme solution)
T1 sequence (P06737 1-847): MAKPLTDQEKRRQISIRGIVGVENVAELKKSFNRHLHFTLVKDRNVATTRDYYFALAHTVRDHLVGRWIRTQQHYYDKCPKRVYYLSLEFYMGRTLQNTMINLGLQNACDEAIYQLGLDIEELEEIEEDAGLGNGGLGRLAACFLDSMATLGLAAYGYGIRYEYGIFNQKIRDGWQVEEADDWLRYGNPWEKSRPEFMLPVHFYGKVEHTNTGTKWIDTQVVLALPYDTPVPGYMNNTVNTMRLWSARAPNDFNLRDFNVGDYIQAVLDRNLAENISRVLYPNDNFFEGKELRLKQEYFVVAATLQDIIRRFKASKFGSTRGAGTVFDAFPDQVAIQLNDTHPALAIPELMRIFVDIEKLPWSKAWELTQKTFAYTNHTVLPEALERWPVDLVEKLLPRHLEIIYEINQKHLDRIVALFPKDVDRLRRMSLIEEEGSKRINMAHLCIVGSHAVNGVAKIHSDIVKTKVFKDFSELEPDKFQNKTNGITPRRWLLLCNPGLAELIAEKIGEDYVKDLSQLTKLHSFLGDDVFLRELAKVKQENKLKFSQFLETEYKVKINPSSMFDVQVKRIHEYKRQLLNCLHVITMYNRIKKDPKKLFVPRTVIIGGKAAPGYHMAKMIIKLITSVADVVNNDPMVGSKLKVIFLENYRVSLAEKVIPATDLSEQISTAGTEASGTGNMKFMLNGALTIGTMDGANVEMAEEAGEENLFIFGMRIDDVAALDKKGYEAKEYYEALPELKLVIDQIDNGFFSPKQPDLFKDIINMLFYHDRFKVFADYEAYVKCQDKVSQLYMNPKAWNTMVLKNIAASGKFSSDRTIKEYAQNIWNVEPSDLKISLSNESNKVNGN
Method in brief: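 Activity was run in the reverse, glycogen-synthesis direction, using Sf9 lysate expressing recombinant human liver glycogen phosphorylase (enzyme solution 80 μg/mL protein, pH 7.0). Substrate solution was Tris pH 7.2 with 1.25 mM glucose-1-phosphate, 2.5 mg/ml glycogen and 7.5 mM glucose, reacted 60 min at room temperature. Released phosphate was measured by malachite green A650, with % inhibition taken against DMSO control and no-enzyme blank.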

db/db mice = assay: Measurement of plasma glucose concentration in obesity type diabetes model db/db mice; assay type: in vivo; conditions: Mus musculus, po; plasma glucose 1 and 3 hr after administration, after fasting for 4 hr; significant difference vs solvent group (Dunnett's test); read-out: Minimum effective dose db/db mouse
Experimental: Measurement Method of Plasma Glucose Concentration
Using obesity type diabetes model db/db mice, the effect of the compound (1) of the present invention on glucose concentration in plasma was examined. The glucose concentration in the plasma of db/db mice (10-15 weeks of age) was measured, and the mice were grouped into 5 mice per group such that the average glucose concentration of plasma is leveled. After fasting for 4 hr, the test drug or a solvent (0.5% methyl cellulose) was orally administered to db/db mice, and plasma glucose concentration at 1 and 3 hr after the administration was measured. The hypoglycemic effect of the test drug was evaluated by detecting a significant difference every hour between the solvent administration group and the test drug administration group (Dunnett's test).

Structure (SMILES)	IC50 [1] [nM]	minimal effective dose (db/db mice) [mg/kg]
O=C(NN1C(=O)N[C@@H](c2ccccc2)C1=O)c1cc2cc(Cl)ccc2[nH]1 (stereo in doubt) [Example 4, N-(2,4-dioxo-5-phenylimidazolidin-3-yl)-5-chloro-1H-indole-2-carboxamide]	85	10
Nc1ccccc1C(=O)NNC(=O)c1cc2cc(Cl)ccc2[nH]1 [Example 1-2, 2-Aminobenzoic acid 2-(5-chloro-1H-indole-2-carbonyl)hydrazide]	13	10
O=C(NNC(=O)c1cc2cc(Cl)ccc2[nH]1)c1c[nH]cn1 [Example 1-81, 1H-imidazole-4-carboxylic acid 2-(5-chloro-1H-indole-2-carbonyl)hydrazide]	28	10
Cc1ccc(C(=O)NNC(=O)c2cc3cc(Cl)ccc3[nH]2)s1 [Example 1-88, 5-methylthiophene-2-carboxylic acid 2-(5-chloro-1H-indole-2-carbonyl)hydrazide]	20	10
Cc1cccc(C(=N)NNC(=O)c2cc3cc(Cl)ccc3[nH]2)c1 [Example 1-134, 5-chloro-1H-indole-2-carboxylic acid 2-(imino-(m-tolyl)-methyl)hydrazide]	40	10
O=C(Nn1c(=O)[nH]c2cccc(Cl)c2c1=O)c1cc2cc(Cl)ccc2[nH]1 [Example 2-17, 5-chloro-1H-indole-2-carboxylic acid (5-chloro-1,2,3,4-tetrahydro-2,4-dioxoquinazolin-3-yl)amide]	37	10
Cc1ccc2[nH]c(C(=O)Nn3c(=O)[nH]c4ccccc4c3=O)cc2c1 [Example 2-23, 5-methyl-1H-indole-2-carboxylic acid (1,2,3,4-tetrahydro-2,4-dioxoquinazolin-3-yl)amide]	24	3
Cc1ccc2[nH]c(C(=O)Nn3c(=O)[nH]c4cc(F)ccc4c3=O)cc2c1 [Example 2-24, 5-methyl-1H-indole-2-carboxylic acid (7-fluoro-1,2,3,4-tetrahydro-2,4-dioxoquinazolin-3-yl)amide]	17	3
O=C(NN1C(=O)CCNC1=O)c1cc2cc(Cl)ccc2[nH]1 [Example 3, N-(2,4-dioxo-perhydropyrimidin-3-yl)-5-chloro-1H-indole-2-carboxamide]	> 100	10
O=C(NN1C(=O)NC(c2ccc(F)cc2)C1=O)c1cc2cc(Cl)ccc2[nH]1 (stereo not shown) [Example 4-16, 5-chloro-1H-indole-2-carboxylic acid (2,5-dioxo-4-(4-fluorophenyl)imidazolidin-1-yl)amide]		10
Cl.N=C(NNC(=O)c1cc2cc(Cl)ccc2[nH]1)c1ccccc1 [Example 6, 5-chloro-1H-indole-2-carboxylic acid 2-(imino-phenyl-methyl)hydrazide hydrochloride]	62	3
N=C(NNC(=O)c1cc2cc(Cl)ccc2[nH]1)c1ccccc1Cl.O=C(O)/C=C\C(=O)O [Example 6-18, 5-chloro-1H-indole-2-carboxylic acid 2-((2-chlorophenyl)-imino-methyl)hydrazide butenedioic acid salt]	49	3
CS(=O)(=O)O.N=C(Cc1ccccc1)NNC(=O)c1cc2cc(Cl)ccc2[nH]1 [Example 6-21]		10

The next lines start with results.

IC50 [1] [nM]	Structure (SMILES)	minimal effective dose (db/db mice) [mg/kg]
65	O=C(NN1C(=O)N[C@H](c2ccccc2)C1=O)c1cc2cc(Cl)ccc2[nH]1 [Example 4-6, 5-chloro-1H-indole-2-carboxylic acid ((4R)-2,5-dioxo-4-phenylimidazolidin-1-yl)amide]	10
96	COc1ccc([C@@H]2NC(=O)N(NC(=O)c3cc4cc(Cl)ccc4[nH]3)C2=O)cc1 [Example 4-19, 5-chloro-1H-indole-2-carboxylic acid ((4S)-2,5-dioxo-4-(4-methoxyphenyl)imidazolidin-1-yl)amide]	10
80	CS(=O)(=O)O.N=C(NNC(=O)c1cc2cc(Cl)ccc2[nH]1)c1ccccc1 [Example 6-17, 5-chloro-1H-indole-2-carboxylic acid 2-(imino-phenyl-methyl)hydrazide methanesulfonate]	3
53	Cl.N=C(NNC(=O)c1cc2cc(Cl)ccc2[nH]1)c1ccccc1F [Example 6-19, 5-chloro-1H-indole-2-carboxylic acid 2-((2-fluorophenyl)-imino-methyl)hydrazide hydrochloride]	3
110	CS(=O)(=O)O.N=C(NNC(=O)c1cc2cc(Cl)ccc2[nH]1)c1ccccc1F [Example 6-20, 5-chloro-1H-indole-2-carboxylic acid 2-((2-fluorophenyl)-imino-methyl)hydrazide methanesulfonate]	3
